From ChEMBL document CHEMBL1201862, “PubChem BioAssay data set” (2004)
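Compound exposure: 48 hours, 5 concentrations, 96-well plates. Abbreviation: GI50, concentration required for 50% inhibition of growth.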 The source made the active and inactive calls. No stated cut-off is given here; in the data, active = GI50 up to about 1.1 µM and inactive = higher.

Experiments:
Experiment in all cases: inhibition of tumour cell growth, NCI panel, 48 h
[1] = test system: 786-0
[2] = test system: A498
[3] = test system: A549
[4] = test system: ACHN
[5] = test system: BT-549
[6] = test system: CAKI-1
[7] = test system: CCRF-CEM
[8] = test system: EKVX
[9] = test system: HCT-15
[10] = test system: HOP-92
[11] = test system: KM12
[12] = test system: MDA-MB-231
[13] = test system: NCI-H226
[14] = test system: NCI-H522
[15] = test system: PC-3
[16] = test system: SF-539
[17] = test system: SK-OV-3
[18] = test system: SNB-19
[19] = test system: SW-620
[20] = test system: NCI/ADR-RES

Row | SMILES | GI50 [1] | GI50 [2] | GI50 [3] | GI50 [4] | GI50 [5] | GI50 [6] | GI50 [7] | GI50 [8] | GI50 [9] | GI50 [10] | GI50 [11] | GI50 [12] | GI50 [13] | GI50 [14] | GI50 [15] | GI50 [16] | GI50 [17] | GI50 [18] | GI50 [19] | GI50 [20]
1 | c1ccc2cc(CNCCOCCOCCNCc3ccc4ccccc4c3)ccc2c1 | 1.57 µM (inactive) | 1.71 µM (inactive) | 1.74 µM (inactive) | 1.79 µM (inactive) | 1.78 µM (inactive) | 1.81 µM (inactive) | 1.97 µM (inactive) | 2.54 µM (inactive) | 1.94 µM | 1.52 µM (inactive) | 1.6 µM (inactive) | 1.57 µM (inactive) | 2.09 µM (inactive) | 1.83 µM (inactive) | 2.17 µM (inactive) | 1.85 µM (inactive) | 3.13 µM (inactive) | 2.31 µM (inactive) | 1.91 µM (inactive) | –
2 | CCOC(=O)/C(=C\NCC(OCC)OCC)c1nc2ccccc2[nH]1 | 31.5 µM (inactive) | 48.6 µM (inactive) | 42.9 µM (inactive) | 35.2 µM (inactive) | 22.4 µM (inactive) | 38.9 µM (inactive) | 33.3 µM (inactive) | 27.6 µM (inactive) | 10 µM | 35.6 µM (inactive) | 32.1 µM (inactive) | – | 37.7 µM (inactive) | 21.4 µM (inactive) | 24 µM (inactive) | 26.2 µM (inactive) | 75 µM (inactive) | 67.3 µM (inactive) | 41.4 µM (inactive) | 2.02 µM (inactive)
3 | Nc1n[n+]([O-])c2cnccc2[n+]1[O-] | 70.6 µM (inactive) | – | 33.9 µM (inactive) | 50.9 µM (inactive) | 45.2 µM (inactive) | > 100 µM (inactive) | 8.28 µM (inactive) | – | 32 µM | – | 58.7 µM (inactive) | 42.9 µM (inactive) | > 100 µM (inactive) | > 100 µM (inactive) | 36.1 µM (inactive) | 47.9 µM (inactive) | > 100 µM (inactive) | > 100 µM (inactive) | 38.4 µM (inactive) | 78 µM (inactive)
4 | COC12OC3(C4OC41)C(C(=O)O[C@H]3CO[Si](C)(C)C(C)(C)C)C2S(=O)(=O)c1ccccc1 (some centres undefined) | 2.89 µM (inactive) | – | > 4.65 µM (inactive) | 2.69 µM (inactive) | > 49.9 µM (inactive) | 2.71 µM (inactive) | 0.597 µM (active) | > 4.65 µM (inactive) | 3.16 µM | 3.27 µM (inactive) | – | > 4.65 µM (inactive) | > 100 µM (inactive) | 17.1 µM (inactive) | > 4.65 µM (inactive) | > 100 µM (inactive) | > 4.65 µM (inactive) | – | 1.52 µM (inactive) | > 100 µM (inactive)
5 | CN(C(=O)[C@@H](NC(=O)OC(C)(C)C)c1ccccc1)[C@H]1CCCC[C@@H]1N1CCCC1 | > 100 µM (inactive) | > 100 µM (inactive) | > 100 µM (inactive) | > 100 µM (inactive) | > 100 µM (inactive) | > 100 µM (inactive) | – | > 100 µM (inactive) | > 100 µM | – | > 100 µM (inactive) | > 100 µM (inactive) | > 100 µM (inactive) | > 100 µM (inactive) | > 100 µM (inactive) | > 100 µM (inactive) | > 100 µM (inactive) | > 100 µM (inactive) | > 100 µM (inactive) | > 100 µM (inactive)
6 | COC(=O)C1=C(O)C(C(=O)OC)[C@]2(O)[C@H](C(=O)OC)[C@H]1C[C@@H](c1ccc(OC)cc1)[C@H]2C(=O)OC (some centres undefined) | 20.2 µM (inactive) | 7.74 µM (inactive) | 20.5 µM (inactive) | 18 µM (inactive) | 30.8 µM (inactive) | 19.5 µM (inactive) | – | 26.3 µM (inactive) | 21.9 µM | 59.7 µM (inactive) | 19.5 µM (inactive) | 30 µM (inactive) | 30.3 µM (inactive) | 2.36 µM (inactive) | – | 28.3 µM (inactive) | 29 µM (inactive) | 29.4 µM (inactive) | 17.7 µM (inactive) | 23.8 µM (inactive)
7 | CC1CCCC2=C1C(c1ccc(Cl)cc1)n1c(s/c(=C\c3ccc(Cl)cc3)c1=O)=N2 (centres undefined) | > 100 µM (inactive) | > 100 µM (inactive) | > 100 µM (inactive) | > 100 µM (inactive) | 22.1 µM (inactive) | > 100 µM (inactive) | > 100 µM (inactive) | > 100 µM (inactive) | > 100 µM | > 100 µM (inactive) | > 100 µM (inactive) | > 100 µM (inactive) | – | – | > 100 µM (inactive) | – | > 100 µM (inactive) | > 100 µM (inactive) | > 100 µM (inactive) | –
8 | O=C(Nc1nnc(-c2ccc(Cl)cc2)o1)C(SC(=S)N1CCOCC1)c1ccccc1 (centres undefined) | 9.35 µM (inactive) | 20.4 µM (inactive) | 13.8 µM (inactive) | 12.4 µM (inactive) | 16.8 µM (inactive) | 20.3 µM (inactive) | 10 µM (inactive) | 14.6 µM (inactive) | 6.03 µM | – | 13.7 µM (inactive) | 30.3 µM (inactive) | 21.9 µM (inactive) | 16.3 µM (inactive) | 13.6 µM (inactive) | 16.7 µM (inactive) | 28.1 µM (inactive) | 27 µM (inactive) | 26 µM (inactive) | 5.58 µM (inactive)
9 | Cc1cc(C)cc(Nc2nnc3n2S(=O)(=O)c2cc(C)c(Cl)cc2S3)c1 | 4.94 µM (inactive) | 5.09 µM (inactive) | 5.01 µM (inactive) | 7.66 µM (inactive) | 4.22 µM (inactive) | 7.11 µM (inactive) | 0.313 µM (active) | 11.2 µM (inactive) | 4.37 µM | – | 8.38 µM (inactive) | 4.73 µM (inactive) | 3.07 µM (inactive) | 3.56 µM (inactive) | 2.77 µM (inactive) | 2.89 µM (inactive) | 14.3 µM (inactive) | 4.3 µM (inactive) | 3.45 µM (inactive) | 2.99 µM (inactive)
10 | O=C(NC(=O)c1ccccc1)OC(c1ccccc1)C1CO1 (centres undefined) | > 100 µM (inactive) | – | > 100 µM (inactive) | > 100 µM (inactive) | > 100 µM (inactive) | > 100 µM (inactive) | > 100 µM (inactive) | > 100 µM (inactive) | > 100 µM | – | > 100 µM (inactive) | > 100 µM (inactive) | > 100 µM (inactive) | > 100 µM (inactive) | > 100 µM (inactive) | > 100 µM (inactive) | > 100 µM (inactive) | > 100 µM (inactive) | > 100 µM (inactive) | > 100 µM (inactive)
11 | N#Cc1ncn(-c2ccccc2)c1N | > 100 µM (inactive) | > 100 µM (inactive) | > 100 µM (inactive) | > 100 µM (inactive) | > 100 µM (inactive) | > 100 µM (inactive) | > 100 µM (inactive) | > 100 µM (inactive) | > 100 µM | – | > 100 µM (inactive) | > 100 µM (inactive) | > 100 µM (inactive) | > 100 µM (inactive) | > 100 µM (inactive) | > 100 µM (inactive) | > 100 µM (inactive) | > 100 µM (inactive) | > 100 µM (inactive) | > 100 µM (inactive)
12 | N#Cc1c(N2CCN(c3ccc([N+](=O)[O-])cc3)CC2)[n+]([O-])c2ccccc2[n+]1[O-] | > 100 µM (inactive) | – | 99.5 µM (inactive) | > 100 µM (inactive) | > 100 µM (inactive) | > 100 µM (inactive) | 4.94 µM (inactive) | > 100 µM (inactive) | > 100 µM | – | > 100 µM (inactive) | > 100 µM (inactive) | – | 3.5 µM (inactive) | > 100 µM (inactive) | 38.3 µM (inactive) | > 100 µM (inactive) | > 100 µM (inactive) | > 100 µM (inactive) | 79.4 µM (inactive)
13 | CC(C)(C)[Si](C)(C)Oc1ccc(C2CNC(=O)C23CCC(=O)N3Cc2ccccc2)cc1 (centres undefined) | 18.9 µM (inactive) | 12.2 µM (inactive) | 10 µM (inactive) | 15 µM (inactive) | 15.5 µM (inactive) | 19.7 µM (inactive) | 17.6 µM (inactive) | 6.68 µM (inactive) | 12.8 µM | 17.1 µM (inactive) | 15.8 µM (inactive) | – | 18.9 µM (inactive) | 10.7 µM (inactive) | 15.2 µM (inactive) | 16.7 µM (inactive) | 15.5 µM (inactive) | 15 µM (inactive) | 15.1 µM (inactive) | 12.8 µM (inactive)
14 | Cc1cc2c(cc1C)C(=O)/C(=C/c1ccccc1C(=O)O)C2 | 40.3 µM (inactive) | 31.8 µM (inactive) | 67.5 µM (inactive) | 55 µM (inactive) | 25.6 µM (inactive) | 72.4 µM (inactive) | 30.9 µM (inactive) | 50.7 µM (inactive) | 36.6 µM | 33.3 µM (inactive) | 55.5 µM (inactive) | – | 15.3 µM (inactive) | 65.6 µM (inactive) | 33.9 µM (inactive) | 18.7 µM (inactive) | – | 34.7 µM (inactive) | 46.8 µM (inactive) | 54.8 µM (inactive)
15 | CC(C)(C)OC(=O)C1/C(=C/CBr)CN1C(=O)OC(C)(C)C (centres undefined) | 11.2 µM (inactive) | 16.4 µM (inactive) | 18.9 µM (inactive) | 16.7 µM (inactive) | 16.7 µM (inactive) | 16.5 µM (inactive) | 2.64 µM (inactive) | 18 µM (inactive) | 8.67 µM | 13.9 µM (inactive) | – | – | – | – | 14.3 µM (inactive) | 18.5 µM (inactive) | 21.1 µM (inactive) | 17.6 µM (inactive) | 5 µM (inactive) | 22.8 µM (inactive)
